In US11337964B2, “Isoindoline derivative, pharmaceutical composition and use thereof” (Kangpu Biopharmaceuticals, Ltd., priority 2017, dated 2022):

Experiments:
Format in all cases: biochemical
Conditions in all cases: FAM-cAMP substrate, 30 minutes at room temperature
[1] = target: T1, PDE4B1 (Homo sapiens, UniProt Q07343); test: PDE4 activity inhibition assay, PDE4B1
T1 construct: purchased BPS 60041
Method: (§1) The IC50 value of the inhibitory effect of the compound on PDE4A1A, PDE4B1 and PDE4D3 was tested.
(§2) Positive compound: Trequinsin (Sigma, Cat. No. T2057).
(§3) Equipment: Wallac Victor Multi-label counter (Perkin Elmer).
(§4) I. Preparing 1× reaction liquid and termination liquid;
(§5) II. PDE enzymatic reaction; • 1) The PDE was dissolved in 1× reaction solution to form 2× enzyme solution. • 2) FAM-cAMP was dissolved in 1× reaction solution to form 2× substrate solution. • 3) Echo 550 was used to transfer the corresponding volume of the compound in DMSO solution to the reaction plate. • 4) 2× enzyme solution was added into the corresponding well of the reaction plate and incubated with the compound solution at room temperature for 15 minutes. • 5) 2× substrate solution was added into the corresponding well of the reaction plate to initiate the reaction. • 6) Reaction plate was incubated at room temperature for 30 minutes and terminated by adding termination liquid, then incubated at room temperature for 60 minutes.
(§6) The inhibition rate was calculated by Excel; IC50 was calculated by GraphPad Prism.

[2] = target: T2, PDE4A1A (Homo sapiens, UniProt P27815); test: PDE4 activity inhibition assay, PDE4A1A
T2 construct: purchased BPS 60040
T2 sequence (P27815 1-647 isoform P27815-4): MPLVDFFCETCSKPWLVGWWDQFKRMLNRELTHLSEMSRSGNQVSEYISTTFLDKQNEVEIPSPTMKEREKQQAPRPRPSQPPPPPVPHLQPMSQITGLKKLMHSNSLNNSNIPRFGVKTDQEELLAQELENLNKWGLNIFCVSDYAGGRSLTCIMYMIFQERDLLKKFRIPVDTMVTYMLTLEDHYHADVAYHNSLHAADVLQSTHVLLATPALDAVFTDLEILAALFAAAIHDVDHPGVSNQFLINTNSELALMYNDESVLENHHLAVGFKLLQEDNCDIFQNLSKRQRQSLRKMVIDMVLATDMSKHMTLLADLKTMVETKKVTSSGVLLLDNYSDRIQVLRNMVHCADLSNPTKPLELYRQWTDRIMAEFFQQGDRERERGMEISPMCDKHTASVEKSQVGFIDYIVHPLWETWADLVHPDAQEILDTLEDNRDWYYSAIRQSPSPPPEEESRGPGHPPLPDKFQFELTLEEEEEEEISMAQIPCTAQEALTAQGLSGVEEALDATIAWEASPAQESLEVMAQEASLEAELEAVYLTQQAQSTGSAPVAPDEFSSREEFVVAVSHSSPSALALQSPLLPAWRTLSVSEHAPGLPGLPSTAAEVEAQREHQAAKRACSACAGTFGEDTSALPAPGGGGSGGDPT
Method: as §1, §2, §3, §4, §5, §6

[3] = target: T3, PDE4D3 (Homo sapiens, UniProt Q08499); test: PDE4 activity inhibition assay, PDE4D3
T3 construct: purchased BPS 60046
T3 sequence (Q08499 1-673 isoform Q08499-2): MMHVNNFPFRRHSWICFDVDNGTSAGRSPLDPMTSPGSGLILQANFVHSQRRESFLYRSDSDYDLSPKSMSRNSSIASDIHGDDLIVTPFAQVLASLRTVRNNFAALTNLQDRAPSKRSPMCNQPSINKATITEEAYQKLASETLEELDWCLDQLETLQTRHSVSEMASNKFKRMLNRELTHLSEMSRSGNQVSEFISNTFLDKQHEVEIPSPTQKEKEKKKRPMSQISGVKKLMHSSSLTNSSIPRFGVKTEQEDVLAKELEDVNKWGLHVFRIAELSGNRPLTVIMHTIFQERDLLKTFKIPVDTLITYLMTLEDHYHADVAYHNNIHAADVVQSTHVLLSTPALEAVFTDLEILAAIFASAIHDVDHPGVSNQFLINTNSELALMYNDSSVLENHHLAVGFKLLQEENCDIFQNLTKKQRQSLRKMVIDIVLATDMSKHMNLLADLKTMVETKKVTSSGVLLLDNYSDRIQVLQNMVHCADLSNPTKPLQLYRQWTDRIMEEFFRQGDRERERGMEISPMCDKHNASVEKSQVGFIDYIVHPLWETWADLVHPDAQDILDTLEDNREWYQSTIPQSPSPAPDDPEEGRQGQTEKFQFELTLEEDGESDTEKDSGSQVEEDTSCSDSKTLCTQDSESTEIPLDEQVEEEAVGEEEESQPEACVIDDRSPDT
Method: as §1, §2, §3, §4, §5, §6

T1 sequence (Q07343 whole entry): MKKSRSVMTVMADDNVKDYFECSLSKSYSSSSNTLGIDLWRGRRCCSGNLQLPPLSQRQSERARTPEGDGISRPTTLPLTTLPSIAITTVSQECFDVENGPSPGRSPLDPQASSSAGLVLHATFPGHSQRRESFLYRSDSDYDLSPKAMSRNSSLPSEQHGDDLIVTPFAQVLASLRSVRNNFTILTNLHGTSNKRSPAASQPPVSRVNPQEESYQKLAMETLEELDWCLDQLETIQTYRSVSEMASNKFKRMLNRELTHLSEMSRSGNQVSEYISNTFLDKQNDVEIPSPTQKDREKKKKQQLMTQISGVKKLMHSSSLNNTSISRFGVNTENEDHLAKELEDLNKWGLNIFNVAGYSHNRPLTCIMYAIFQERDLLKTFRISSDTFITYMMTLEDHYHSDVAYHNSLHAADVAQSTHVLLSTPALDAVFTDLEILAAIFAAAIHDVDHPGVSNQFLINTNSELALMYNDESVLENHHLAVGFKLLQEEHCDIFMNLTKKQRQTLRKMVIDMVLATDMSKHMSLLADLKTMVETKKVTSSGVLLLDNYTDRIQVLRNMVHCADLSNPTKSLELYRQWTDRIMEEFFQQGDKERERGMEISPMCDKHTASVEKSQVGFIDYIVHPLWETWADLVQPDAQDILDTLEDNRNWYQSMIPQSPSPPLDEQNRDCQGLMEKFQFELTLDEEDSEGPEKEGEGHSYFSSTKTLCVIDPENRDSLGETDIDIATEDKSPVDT

Structure (SMILES)	IC50 [1]	IC50 [2]	IC50 [3]
CCOc1nc([C@H](CS(C)(=O)=O)N2C(=O)c3cccc(NC(C)=O)c3C2=O)ccc1OC [Compound 703, (R)—N-(2-(1-(6-ethoxy-5-methoxypyridin-2-yl)-2-(methylsulfonyl)ethyl)-1,3-dioxoisoindolin-4-yl)acetamide]	55 nM	30 nM	20 nM
CCOc1nc([C@H](CS(C)(=O)=O)N2C(=O)c3c(F)ccc(NC(C)=O)c3C2=O)ccc1OC [Compound 706, (R)—N-(2-(1-(6-ethoxy-5-methoxypyridin-2-yl)-2-(methylsulfonyl)ethyl)-7-fluoro-1,3-dioxoisoindolin-4-yl)acetamide]	18 nM	6.5 nM	4 nM
CCOc1nc([C@H](CS(C)(=O)=O)N2C(=O)c3cc(F)cc(NC(C)=O)c3C2=O)ccc1OC [Compound 709, (R)—N-(2-(1-(6-ethoxy-5-methoxypyridin-2-yl)-2-(methylsulfonyl)ethyl)-6-fluoro-1,3-dioxoisoindolin-4-yl)acetamide]	32 nM	17 nM	11 nM
[2H]C([2H])([2H])Oc1ccc([C@@H](CS(C)(=O)=O)N2C(=O)c3cccc(NC(C)=O)c3C2=O)nc1OCC [Compound 711, (S)—N-(2-(1-(6-ethoxy-5-d3-methoxypyridin-2-yl)-2-(methylsulfonyl)ethyl)-1,3-dioxoisoindolin-4-yl)acetamide]	5.1 nM	1.1 nM	2 nM
[2H]C([2H])([2H])Oc1ccc([C@H](CS(C)(=O)=O)N2C(=O)c3cccc(NC(C)=O)c3C2=O)nc1OCC [Compound 712, (R)—N-(2-(1-(6-ethoxy-5-d3-methoxypyridin-2-yl)-2-(methylsulfonyl)ethyl)-1,3-dioxoisoindolin-4-yl)acetamide]	82.8 nM	32.6 nM	29 nM
[2H]C([2H])([2H])Oc1ccc([C@@H](CS(C)(=O)=O)N2C(=O)c3c(F)ccc(NC(C)=O)c3C2=O)nc1OCC [Compound 718, (S)—N-(2-(1-(6-ethoxy-5-d3-methoxypyridin-2-yl)-2-(methylsulfonyl)ethyl)-7-fluoro-1,3-dioxoisoindolin-4-yl)acetamide]	3 nM	0.9 nM	0.7 nM
[2H]C([2H])([2H])Oc1ccc([C@H](CS(C)(=O)=O)N2C(=O)c3c(F)ccc(NC(C)=O)c3C2=O)nc1OCC [Compound 719, (R)—N-(2-(1-(6-ethoxy-5-d3-methoxypyridin-2-yl)-2-(methylsulfonyl)ethyl)-7-fluoro-1,3-dioxoisoindolin-4-yl)acetamide]	57.8 nM	15.3 nM	15.4 nM
[2H]C([2H])([2H])Oc1ccc([C@@H](CS(C)(=O)=O)N2C(=O)c3cc(F)cc(NC(C)=O)c3C2=O)nc1OCC [Compound 724, (S)—N-(2-(1-(6-ethoxy-5-d3-methoxypyridin-2-yl)-2-(methylsulfonyl)ethyl)-6-fluoro-1,3-dioxoisoindolin-4-yl)acetamide]	5.7 nM	2.3 nM	3.1 nM
[2H]C([2H])([2H])Oc1ccc([C@H](CS(C)(=O)=O)N2C(=O)c3cc(F)cc(NC(C)=O)c3C2=O)nc1OCC [Compound 725, (R)—N-(2-(1-(6-ethoxy-5-d3-methoxypyridin-2-yl)-2-(methylsulfonyl)ethyl)-6-fluoro-1,3-dioxoisoindolin-4-yl)acetamide]	93 nM	32.1 nM	33.5 nM
CCOc1nc(C(CS(C)(=O)=O)N2C(=O)c3c(Cl)ccc(NC(C)=O)c3C2=O)ccc1OC (stereo not drawn) [Compound 728, N-(7-chloro-2-(1-(6-ethoxy-5-methoxypyridin-2-yl)-2-(methylsulfonyl)ethyl)-1,3-dioxoisoindolin-4-yl)acetamide]	1.6 nM	0.6 nM	0.4 nM
CCOc1nc([C@@H](CS(C)(=O)=O)N2C(=O)c3c(C#N)ccc(NC(C)=O)c3C2=O)ccc1OC [Compound 732, (S)—N-(7-cyano-2-(1-(6-ethoxy-5-methoxypyridin-2-yl)-2-(methylsulfonyl)ethyl)-1,3-dioxoisoindolin-4-yl)acetamide]	2.4 nM	0.8 nM	1.1 nM
CCOc1nc([C@@H](CS(C)(=O)=O)N2C(=O)c3cc(C#N)cc(NC(C)=O)c3C2=O)ccc1OC [Compound 734, (S)—N-(6-cyano-2-(1-(6-ethoxy-5-methoxypyridin-2-yl)-2-(methylsulfonyl)ethyl)-1,3-dioxoisoindolin-4-yl)acetamide]	17.8 nM	5.6 nM	13 nM
CCOc1nc(C(CS(C)(=O)=O)N2C(=O)c3cccc(NS(C)(=O)=O)c3C2=O)ccc1OC (stereo not drawn) [Compound 737, N-(2-(1-(6-ethoxy-5-methoxypyridin-2-yl)-2-(methylsulfonyl)ethyl)-1,3-dioxoisoindolin-4-yl)methanesulfonamide]	136 nM	51.8 nM	35.9 nM
CCOc1nc(C(CS(C)(=O)=O)N2C(=O)c3cccc(NC(=O)CO)c3C2=O)ccc1OC (stereo not drawn) [Compound 739, N-(2-(1-(6-ethoxy-5-methoxypyridin-2-yl)-2-(methylsulfonyl)ethyl)-1,3-dioxoisoindolin-4-yl)-2-hydroxyacetamide]	36.3 nM	14.5 nM	10.9 nM
CCOc1nc(C(CS(C)(=O)=O)N2C(=O)c3cccc(NC(=O)COCc4ccccc4)c3C2=O)ccc1OC (stereo not drawn) [Compound 742, 2-(benzyloxy)-N-(2-(1-(6-ethoxy-5-methoxypyridin-2-yl)-2-(methylsulfonyl)ethyl)-1,3-dioxoisoindolin-4-yl)acetamide]	6.2 nM	2.4 nM	2.6 nM
CCOc1nc(C(CS(C)(=O)=O)N2C(=O)c3c(F)ccc(NC(=O)COC)c3C2=O)ccc1OC (stereo not drawn) [Compound 745, N-(2-(1-(6-ethoxy-5-methoxypyridin-2-yl)-2-(methylsulfonyl)ethyl)-7-fluoro-1,3-dioxoisoindolin-4-yl)-2-methoxyacetamide]	2.6 nM	1.1 nM	1.2 nM
CCOc1nc(C(CS(C)(=O)=O)N2C(=O)c3cccc(NC(=O)COC)c3C2=O)ccc1OC (stereo not drawn) [Compound 748, N-(2-(1-(6-ethoxy-5-methoxypyridin-2-yl)-2-(methylsulfonyl)ethyl)-1,3-dioxoisoindolin-4-yl)-2-methoxyacetamide]	7.9 nM	2.8 nM	3.3 nM
CCOc1nc(C(CS(C)(=O)=O)N2C(=O)c3c(F)ccc(NC(=O)CN(C)C)c3C2=O)ccc1OC (stereo not drawn) [Compound 751, 2-(dimethylamino)-N-(2-(1-(6-ethoxy-5-methoxypyridin-2-yl)-2-(methylsulfonyl)ethyl)-7-fluoro-1,3-dioxoisoindolin-4-yl)acetamide]	9.9 nM	5 nM	3.1 nM
CCOc1nc(C(CS(C)(=O)=O)N2C(=O)c3cccc(NC(=O)CN(C)C)c3C2=O)ccc1OC (stereo not drawn) [Compound 754, 2-(dimethylamino)-N-(2-(1-(6-ethoxy-5-methoxypyridin-2-yl)-2-(methylsulfonyl)ethyl)-1,3-dioxoisoindolin-4-yl)acetamide]	21.9 nM	10.6 nM	8 nM
